# From article PMC10001067, “Xanthine Oxidase Inhibitory Peptides from Larimichthys polyactis: Characterization and In Vitro/In Silico Evidence” (Foods, 2023)
# No end group written: not given here.
# How the values were obtained:
# [1] = system: XO; conditions: concentration of 0.25 mg/mL; cited from earlier work
# Protocol: Nongonierma reported that Trp inhibited XO by 70.3 ± 1.1% at a concentration of 0.25 mg/mL. Li claimed that relatively lower IC50 values were mainly located in the peptides containing Trp residue, reporting that the IC50 values of peptides WDD, WDQW, PPKNW, WPPKN, and WSREEQE were lower than those of peptides HCPF and ADIYTE, and that these ...
# [2] = target: xanthine oxidase (XO); conditions: peptide from Skipjack tuna hydrolysates; read-out: XOI activity of IC50; cited from earlier work
# Excerpt: Seven peptides (WDDMEKIW, APPERKYSVW, IADRMQKELT, LNSADLIK, LSNLGIVI, IGALRAVA, and HHTFYNELR) derived from SYC were obtained and their activity values, hemolysis, and toxicity were predicted. Their basic data (AA sequence, MW, PI, predicted activity values, hemolysis, toxicity, and IC50 for XOI activity) are summarized in Table 3. […] Only WW8 and AW10 were predicted to have higher potential physiological activity, and all were non-hemolytic except LSNLGIVI and LNSADLIK. The r ...
# [3] = target: T1, xanthine oxidase (XO) (Bos taurus, UniProt P80457); assay: XOI activity IC50 in vitro (uric acid formation, absorbance 290 nm); assay type: biochemical, bovine milk; conditions: for IC50: synthesized peptides, 0.2 M potassium phosphate buffer pH 7.4, XO 0.07 U/mL, xanthine 0.48 mM, 37 °C, absorbance 290 nm, mean ± SD, n = 3, SD; for XOI activity at 15 mg/mL: peptide at 15 mg/mL
# T1 construct: xanthine oxidase (X1875-5UN, derived from bovine milk); purchased Solarbio Co., Ltd. (Beijing, China) X1875-5UN; host or cells: bovine milk
# T1 sequence (P80457 whole entry): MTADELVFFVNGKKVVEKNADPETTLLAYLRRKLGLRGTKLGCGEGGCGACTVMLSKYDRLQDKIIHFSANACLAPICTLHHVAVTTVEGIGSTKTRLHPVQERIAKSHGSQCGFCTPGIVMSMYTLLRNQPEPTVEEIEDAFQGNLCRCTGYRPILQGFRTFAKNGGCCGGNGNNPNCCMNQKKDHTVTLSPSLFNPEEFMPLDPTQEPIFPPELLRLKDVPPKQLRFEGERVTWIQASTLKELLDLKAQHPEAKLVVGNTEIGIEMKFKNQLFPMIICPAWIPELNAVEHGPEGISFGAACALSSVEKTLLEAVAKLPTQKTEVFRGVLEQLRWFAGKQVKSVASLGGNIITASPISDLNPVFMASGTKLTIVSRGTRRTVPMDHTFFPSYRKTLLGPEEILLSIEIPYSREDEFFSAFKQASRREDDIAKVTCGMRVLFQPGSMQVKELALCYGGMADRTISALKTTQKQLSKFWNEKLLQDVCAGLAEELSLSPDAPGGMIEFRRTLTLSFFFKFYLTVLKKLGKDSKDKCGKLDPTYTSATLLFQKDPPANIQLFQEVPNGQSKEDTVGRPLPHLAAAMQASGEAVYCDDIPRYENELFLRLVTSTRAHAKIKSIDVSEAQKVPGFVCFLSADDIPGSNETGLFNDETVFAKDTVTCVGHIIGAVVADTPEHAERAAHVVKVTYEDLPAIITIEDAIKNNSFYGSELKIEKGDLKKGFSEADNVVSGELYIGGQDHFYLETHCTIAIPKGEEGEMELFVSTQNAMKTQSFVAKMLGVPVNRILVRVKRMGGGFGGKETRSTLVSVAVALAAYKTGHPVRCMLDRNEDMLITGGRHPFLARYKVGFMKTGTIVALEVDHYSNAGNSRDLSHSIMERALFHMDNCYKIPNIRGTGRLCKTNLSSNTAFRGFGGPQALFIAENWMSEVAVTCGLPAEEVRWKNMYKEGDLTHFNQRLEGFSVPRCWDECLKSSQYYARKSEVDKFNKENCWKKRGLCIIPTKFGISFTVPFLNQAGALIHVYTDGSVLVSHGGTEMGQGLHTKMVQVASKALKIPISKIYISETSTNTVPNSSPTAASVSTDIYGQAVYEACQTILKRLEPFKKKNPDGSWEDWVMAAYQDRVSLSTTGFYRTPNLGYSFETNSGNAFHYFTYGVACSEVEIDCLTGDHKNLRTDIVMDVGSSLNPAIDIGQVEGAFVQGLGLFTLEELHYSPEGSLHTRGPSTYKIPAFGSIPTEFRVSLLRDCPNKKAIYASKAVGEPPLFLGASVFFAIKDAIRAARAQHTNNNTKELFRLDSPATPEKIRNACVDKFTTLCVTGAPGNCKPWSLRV
# Protocol: The XOI activity levels of SYCHs were determined and calculated with the methods reported by Liu and Wei with slight modifications. Xanthine was dissolved in 0.2 M potassium phosphate buffer (pH = 7.4) to a concentration of 0.48 mM. In addition, samples (SYCH, UF-1, UF-2, and UF-3) were also dissolved in 0.2 M potassium phosphate buffer (pH = 7.4). Next, 50 μL of sample solution and 50 μL of XO solution (0.07 U/mL) were mixed and incubated at 37 °C for 5 min, then 150 μL of xanthine solution was added to the mixture to continue the reaction. The absorbance of formed uric acid in the samples was monitored at 290 nm with a multifunctional microplate reader (Tecan Co., Ltd., Männedorf, Switzerland). The results were recorded for 10 min. The assay was performed in triplicate. The formula for the calculation of XOI activity is as follows: […]=(dA/dt)blank−(dA/dt)sample/(dA/dt)blank × 100% where (dA/dt)blank and (dA/dt)sample are the reaction rate without and with the test sample inhibitor, respectively. IC50 values were calculated from the mean values of data. XOI activity IC50 (the concentration of active compound required to observe 50% XO inhibition) was determined by plotting the percentage inhibition as a function of concentration of the test compound.
# [4] = Dissolution of synthesized peptides in water; assay type: physicochemical
molecule,measurement,setting,value
N[C@@H](Cc1c[nH]c2ccccc12)C(=O)O [Trp],Inhibition of XO,[1],70.3 ± 1.1%
ACECD [XOI peptide from Skipjack tuna hydrolysates],IC50,[2],13.4 mM
"APPERKYSVW [APPERKYSVW, Ala-Pro-Pro-Glu-Arg-Lys-Tyr-Ser-Val-Trp]",IC50,[3],5.86 ± 0.02 mM
HHTFYNELR [peptide derived from SYC],Dissolution in water at 3 mg/mL,[4],did not even dissolve in water
IADRMQKELT [peptide derived from SYC],XOI activity at 15 mg/mL,[3],no XOI activity
IGALRAVA [peptide derived from SYC],Dissolution in water at 3 mg/mL,[4],did not even dissolve in water
LNSADLIK [peptide derived from SYC],XOI activity at 15 mg/mL,[3],no XOI activity
LSNLGIVI [peptide derived from SYC],Dissolution in water at 3 mg/mL,[4],did not even dissolve in water
"WDDMEKIW [WDDMEKIW, Trp-Asp-Asp-Met-Glu-Lys-Ile-Trp]",IC50,[3],3.16 ± 0.03 mM
